Experimental data as given in patent US8198307B2, “Imidazole derivatives having aryl piperidine substituent, method for preparation thereof and pharmaceutical compositions containing same” (Korea Research Institute of Chemical Technology, priority 2007, dated 2012).

Target: T1, MCH R1 (melanine-concentrating hormone receptor-1) (Homo sapiens, UniProt Q99705)
T1 construct: purchased Euroscreen, Gosselies, Belgium
Assay: Inhibitory effects on MCH R1 binding (Eu-MCH time-resolved fluorescence binding assay)
Details: concentration inhibiting the binding of MCH (Eu-MCH, 2 nM) to MCH R1 by 50% in vitro; TRF readout; test range 1 nM to 10 μM; read-out: IC50
Protocol: First, MCH R1 (melanine-concentrating hormone receptor-1; Euroscreen, Gosselies, Belgium), 1 μM Europium-labeled melanine-concentrating hormone (Eu-MCH, PerkinElmer, Turku, Finland) and 1 mM melanine-concentrating hormone (MCH, #070-47, Phoenix, Belmont Calif., USA) were kept at 4° C. for ready use. 1 μM Eu-MCH and 1 mM MCH were diluted with an experimental solution (25 mM HEPES pH 7.4, 5 mM MgCl2, 1 mM CaCl2 and 0.5% (w/w) BSA) to 8 nM (final reaction concentration: 2 nM) and 2 μM (final reaction concentration: 0.5 μM), respectively. The compounds prepared in the Examples (“Test compounds”) were dissolved in the experimental solution in concentration of 4 nM to 40 μM (final reaction concentration: 1 nM to 10 μM). MCH R1 (200 assays/vial) was homogeneously dispersed in the experimental solution.
Then, 100 μl/well of the following reaction mixture was added to the wells of a microplate (Multiwell 96 well filter plates PN5020, Pall Co., Ann Arbor, Mich., USA) equipped with a filter paper, with an 8-channel pipette (multi 8-channel, Eppendorf, Hamburg, Germany). Specifically, to the wells of a non-specific binding control group, 25 μl of Eu-MCH, 50 μl of MCH R1 and 25 μl of MCH were added. Further, 25 μl of the experimental solution supplemented with 10% (w/w) of DMSO, 25 μl of Eu-MCH and 50 μl of MCH R1 were added to the wells of a total binding control group, while 25 μl of the test compounds, 25 μl Eu-MCH and 50 μl of MCH R1 were added to the wells of an experimental group. Subsequently, the microplate was shaken gently for 15 seconds and kept at room temperature for 90 minutes to allow the reaction to take place. Then, the plate was washed with a microplate washer (EMBLA, Molecular Devices) by washing three times with 300 μl of a washing solution (25 mM HEPES pH 7.4, 5 mM MgCl2, 1 mM CaCl2) to remove the residual unreacted Eu-MCH. Moisture was removed from the bottom of the wells and 150 μl of dissociation solution (DELFIA Enhancement solution, PerkinElmer, Turku, Finland) was added to each well, followed by keeping the plate at room temperature for 2 to 4 hours. Subsequently, time-resolved fluorescence (TRF) values were measured with a multilabel counter (Victor2, PerkinElmer, Turku, Finland) (emission wave length: 615 nm, excitation wave length: 340 nm). The inhibition rate based on the time-resolved fluorescence data was calculated using the following Equation (I). Inhibition rate of time-resolved fluorescence (%)=[(Average TRF value of the total binding group−Time-resolved fluorescence value of the test compound)/(Average TRF value of the total binding group−Average TRF value of the non-specific binding group)]×100 (I)

T1 sequence (Q99705 whole entry, species assumed): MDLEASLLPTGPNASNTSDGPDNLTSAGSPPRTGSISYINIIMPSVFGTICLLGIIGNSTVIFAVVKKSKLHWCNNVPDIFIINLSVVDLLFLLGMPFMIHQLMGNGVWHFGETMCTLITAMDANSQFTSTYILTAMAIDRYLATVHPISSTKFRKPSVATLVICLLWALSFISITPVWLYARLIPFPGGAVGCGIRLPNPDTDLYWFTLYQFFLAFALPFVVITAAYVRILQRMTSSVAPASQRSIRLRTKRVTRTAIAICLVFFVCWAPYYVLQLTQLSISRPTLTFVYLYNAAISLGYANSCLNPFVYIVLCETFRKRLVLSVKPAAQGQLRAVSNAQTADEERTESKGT

| SMILES | IC50 [nM] |
| --- | --- |
| CC(=O)Nc1cccc(C2CCN(CCn3c(-c4ccccc4)nc4ccccc43)CC2)c1 [Example 1, 2-phenyl-1-{2-[4-(3-acetylaminophenyl)piperidin-1-yl]ethyl}-1H-benzimidazole] | > 10000 |
| CC(=O)Nc1cccc(C2CCN(CCn3c(-c4ccc(Cl)cc4)nc4ccccc43)CC2)c1 [Example 2, 2-(4-chlorophenyl)-1-{2-[4-(3-acetylaminophenyl)piperidin-1-yl]ethyl}-1H-benzimidazole] | 6000 |
| CC(=O)Nc1cccc(C2CCN(CCCn3c(-c4ccccc4)nc4ccccc43)CC2)c1 [Example 3, 2-phenyl-1-{3-[4-(3-acetylaminophenyl)piperidin-1-yl]propyl}-1H-benzimidazole] | 2 |
| CC(=O)Nc1cccc(C2CCN(CCCn3c(-c4ccc(Cl)cc4)nc4ccccc43)CC2)c1 [Example 4, 2-(4-chlorophenyl)-1-{3-[4-(3-acetylaminophenyl)piperidin-1-yl]propyl}-1H-benzimidazole] | 1 |
| CC(=O)Nc1cccc(C2CCN(CCCCn3c(-c4ccccc4)nc4ccccc43)CC2)c1 [Example 5, 2-phenyl-1-{4-[4-(3-acetylaminophenyl)piperidin-1-yl]butyl}-1H-benzimidazole] | 29 |
| CC(=O)Nc1cccc(C2CCN(CCCCn3c(-c4ccc(Cl)cc4)nc4ccccc43)CC2)c1 [Example 6, 2-(4-chlorophenyl)-1-{4-[4-(3-acetylaminophenyl)piperidin-1-yl]butyl}-1H-benzimidazole] | 1 |
| CC(=O)Nc1cccc(C2CCN(CCCCCn3c(-c4ccccc4)nc4ccccc43)CC2)c1 [Example 7, 2-phenyl-1-{5-[4-(3-acetylaminophenyl)piperidin-1-yl]pentyl}-1H-benzimidazole] | 74 |
| CC(=O)Nc1cccc(C2CCN(CCCCCn3c(-c4ccc(Cl)cc4)nc4ccccc43)CC2)c1 [Example 8, 2-(4-chlorophenyl)-1-{5-[4-(3-acetylaminophenyl)piperidin-1-yl]pentyl}-1H-benzimidazole] | 32 |
| CC(=O)Nc1cccc(C2CCN(CCCn3c(-c4ccccc4Cl)nc4ccccc43)CC2)c1 [Example 9, 2-(2-chlorophenyl)-1-{3-[4-(3-acetylaminophenyl)piperidin-1-yl]propyl}-1H-benzimidazole] | 10 |
| CC(=O)Nc1cccc(C2CCN(CCCn3c(-c4cccc(Cl)c4)nc4ccccc43)CC2)c1 [Example 10, 2-(3-chlorophenyl)-1-{3-[4-(3-acetylaminophenyl)piperidin-1-yl]propyl}-1H-benzimidazole] | 5 |
| CC(=O)Nc1cccc(C2CCN(CCCn3c(-c4ccc(Br)cc4)nc4ccccc43)CC2)c1 [Example 11, 2-(4-bromophenyl)-1-{3-[4-(3-acetylaminophenyl)piperidin-1-yl]propyl}-1H-benzimidazole] | 5 |
| CC(=O)Nc1cccc(C2CCN(CCCn3c(-c4ccc(Cl)c(Cl)c4)nc4ccccc43)CC2)c1 [Example 12, 2-(3,4-dichlorophenyl)-1-{3-[4-(3-acetylaminophenyl)piperidin-1-yl]propyl}-1H-benzimidazole] | 24 |
| CC(=O)Nc1cccc(C2CCN(CCCn3c(-c4cccc(Br)c4)nc4ccccc43)CC2)c1 [Example 13, 2-(3-bromophenyl)-1-{3-[4-(3-acetylaminophenyl)piperidin-1-yl]propyl}-1H-benzimidazole] | 1 |
| CC(=O)Nc1cccc(C2CCN(CCCn3c(-c4ccccc4I)nc4ccccc43)CC2)c1 [Example 14, 2-(2-iodophenyl)-1-{3-[4-(3-acetylaminophenyl)piperidin-1-yl]propyl}-1H-benzimidazole] | > 10000 |
| CC(=O)Nc1cccc(C2CCN(CCCn3c(-c4ccccc4F)nc4ccccc43)CC2)c1 [Example 15, 2-(2-fluorophenyl)-1-{3-[4-(3-acetylaminophenyl)piperidin-1-yl]propyl}-1H-benzimidazole] | 10 |
| CC(=O)Nc1cccc(C2CCN(CCCn3c(-c4ccc(Cl)cc4Cl)nc4ccccc43)CC2)c1 [Example 16, 2-(2,4-dichlorophenyl)-1-{3-[4-(3-acetylaminophenyl)piperidin-1-yl]propyl}-1H-benzimidazole] | 3 |
| COc1ccccc1-c1nc2ccccc2n1CCCN1CCC(c2cccc(NC(C)=O)c2)CC1 [Example 17, 2-(2-methoxyphenyl)-1-{3-[4-(3-acetylaminophenyl)piperidin-1-yl]propyl}-1H-benzimidazole] | 747 |
| COc1cccc(-c2nc3ccccc3n2CCCN2CCC(c3cccc(NC(C)=O)c3)CC2)c1 [Example 18, 2-(3-methoxyphenyl)-1-{3-[4-(3-acetylaminophenyl)piperidin-1-yl]propyl}-1H-benzimidazole] | 7 |
| COc1ccc(-c2nc3ccccc3n2CCCN2CCC(c3cccc(NC(C)=O)c3)CC2)cc1 [Example 19, 2-(4-methoxyphenyl)-1-{3-[4-(3-acetylaminophenyl)piperidin-1-yl]propyl}-1H-benzimidazole] | 9 |
| CC(=O)Nc1cccc(C2CCN(CCCn3c(-c4ccc(C(C)C)cc4)nc4ccccc43)CC2)c1 [Example 20, 2-(4-isopropylphenyl)-1-{3-[4-(3-acetylaminophenyl)piperidin-1-yl]propyl}-1H-benzimidazole] | 19 |
| CC(=O)Nc1cccc(C2CCN(CCCn3c(-c4ccccc4)nc4cc(C)c(C)cc43)CC2)c1 [Example 21, 2-phenyl-1-{3-[4-(3-acetylaminophenyl)piperidin-1-yl]propyl}-5,6-dimethyl-1H-benzimidazole] | 5 |
| CC(=O)Nc1cccc(C2CCN(CCCn3c(-c4ccc(Cl)cc4)nc4cc(C)c(C)cc43)CC2)c1 [Example 22, 2-(4-chlorophenyl)-1-{3-[4-(3-acetylaminophenyl)piperidin-1-yl]propyl}-5,6-dimethyl-1H-benzimidazole] | 200 |
| CC(=O)Nc1cccc(C2CCN(CCCn3c(-c4ccccc4)nc4ccc(C)cc43)CC2)c1 [Example 23, 2-phenyl-1-{3-[4-(3-acetylaminophenyl)piperidin-1-yl]propyl}-6-methyl-1H-benzimidazole] | 16 |
| CC(=O)Nc1cccc(C2CCN(CCCn3c(-c4ccc(Cl)cc4)nc4ccc(C)cc43)CC2)c1 [Example 24, 2-(4-chlorophenyl)-1-{3-[4-(3-acetylaminophenyl)piperidin-1-yl]propyl}-6-methyl-1H-benzimidazole] | 10 |
| CC(=O)Nc1cccc(C2CCN(CCCn3c(-c4ccc(Cl)cc4)nc4ccc(Cl)cc43)CC2)c1 [Example 25, 2-(4-chlorophenyl)-1-{3-[4-(3-acetylaminophenyl)piperidin-1-yl]propyl}-6-chloro-1H-benzimidazole] | 13 |
| CC(=O)Nc1cccc(C2CCN(CCCn3c(-c4ccccc4)nc4ccc(F)cc43)CC2)c1 [Example 26, 2-phenyl-1-{3-[4-(3-acetylaminophenyl)piperidin-1-yl]propyl}-6-fluoro-1H-benzimidazole] | 7 |
| COc1ccc2nc(-c3ccccc3)n(CCCN3CCC(c4cccc(NC(C)=O)c4)CC3)c2c1 [Example 27, 2-phenyl-1-{3-[4-(3-acetylaminophenyl)piperidin-1-yl]propyl}-6-methoxy-1H-benzimidazole] | 11 |
| COc1ccc2nc(-c3ccc(Cl)cc3)n(CCCN3CCC(c4cccc(NC(C)=O)c4)CC3)c2c1 [Example 28, 2-(4-chlorophenyl)-1-{3-[4-(3-acetylaminophenyl)piperidin-1-yl]propyl}-6-methoxy-1H-benzimidazole] | 55 |
| CC(=O)Nc1cccc(C2CCN(CCCn3c(-c4ccccc4)nc4ccc(Cl)cc43)CC2)c1 [Example 29, 2-phenyl-1-{3-[4-(3-acetylaminophenyl)piperidin-1-yl]propyl}-6-chloro-1H-benzimidazole] | 10 |
| CC(=O)Nc1cccc(C2CCN(CCCn3c(-c4ccc(F)cc4)nc4ccc(Cl)cc43)CC2)c1 [Example 30, 2-(4-fluorophenyl)-1-{3-[4-(3-acetylaminophenyl)piperidin-1-yl]propyl}-6-chloro-1H-benzimidazole] | 13 |
